pIC50: −log10 of the molar value.
Target: T1, PIP4K2C (Homo sapiens, UniProt Q8TBX8)
T1 sequence (Q8TBX8 1-421): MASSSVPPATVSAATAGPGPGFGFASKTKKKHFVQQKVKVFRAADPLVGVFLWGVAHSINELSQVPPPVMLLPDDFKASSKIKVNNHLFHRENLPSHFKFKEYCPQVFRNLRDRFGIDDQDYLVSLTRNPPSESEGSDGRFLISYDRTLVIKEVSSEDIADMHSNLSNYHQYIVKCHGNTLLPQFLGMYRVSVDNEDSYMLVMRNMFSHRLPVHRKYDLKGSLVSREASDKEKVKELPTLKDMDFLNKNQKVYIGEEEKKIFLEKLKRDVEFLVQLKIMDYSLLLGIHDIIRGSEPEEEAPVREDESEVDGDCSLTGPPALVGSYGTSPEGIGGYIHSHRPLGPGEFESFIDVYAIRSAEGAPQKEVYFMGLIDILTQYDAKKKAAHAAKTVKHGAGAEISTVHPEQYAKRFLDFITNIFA
Assay: Enzyme Binding Assay (KINOMEscan): active site-directed competition binding to an immobilized ligand
Design: purchased Eurofins DiscoverX, San Diego, CA 87-0007-1094
Conditions: 11-point dose response, duplicate, top concentration 5 micromolar; read-out: Pip4k2c Kd: IC50
Method in brief: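 Active site-directed competition binding against an immobilized ligand. 11-point dose-response in duplicate, top concentration 5 micromolar; IC50 from a Hill equation fitted by the Levenberg-Marquardt algorithm.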

SMILES	pIC50
CC(=O)N1CCC[C@H](Nc2ncc(Cl)c(-c3cccc(-c4ccc(F)cc4)c3)n2)C1 [Compound 128, (S)-1-(3-((5-chloro-4-(4′-fluoro-[1,1′-biphenyl]-3-yl)pyrimidin-2-yl)amino)piperidin-1-yl)ethan-1-one]	> 6.30
CC(=O)N1CCC[C@H](Nc2ncc(Cl)c(-c3cccc(-n4ccccc4=O)c3)n2)C1 [Compound 129, (S)-1-(3-(2-((1-acetylpiperidin-3-yl)amino)-5-chloropyrimidin-4-yl)phenyl)pyridin-2(1H)-one]	> 6.30
CC(=O)N[C@H]1CC[C@@H](Nc2ncc(Cl)c(-c3cccc(-c4ccc(F)cc4)n3)n2)CC1 [Compound 130, cis-N-((1s,4s)-4-((5-chloro-4-(6-(4-fluorophenyl)pyridin-2-yl)pyrimidin-2-yl)amino)cyclohexyl)acetamide]	> 6.30
CNC(=O)[C@H]1CC[C@@H](Nc2ncc(Cl)c(-c3cccc(-c4ccc(F)cc4)n3)n2)CC1 [Compound 131, cis-(1s,4s)-4-((5-chloro-4-(6-(4-fluorophenyl)pyridin-2-yl)pyrimidin-2-yl)amino)-N-methylcyclohexane-1-carboxamide]	> 6.30
CC(=O)N1CCC(Nc2ncc(Cl)c(-c3cc(C4CC4)[nH]n3)n2)CC1 [Compound 132, 1-(4-((5-chloro-4-(5-cyclopropyl-1H-pyrazol-3-yl)pyrimidin-2-yl)amino)piperidin-1-yl)ethan-1-one]	> 6.30
CNC(=O)[C@H]1C[C@H](Nc2ncc(Cl)c(-c3cnn(-c4cc[nH]c(=O)c4)c3)n2)C1 [Compound 133, trans-(1r,3r)-3-((5-chloro-4-(1-(2-oxo-1,2-dihydropyridin-4-yl)-1H-pyrazol-4-yl)pyrimidin-2-yl)amino)-N-methylcyclobutane-1-carboxamide]	6.00 to 6.30
CNC(=O)[C@H]1CC[C@H](Nc2ncc(Cl)c(-c3cnn(-c4ccc(F)cc4)c3)n2)CC1 [Compound 134, trans-(1r,4r)-4-((5-chloro-4-(1-(4-fluorophenyl)-1H-pyrazol-4-yl)pyrimidin-2-yl)amino)-N-methylcyclohexane-1-carboxamide]	> 6.30
CC(=O)N1CCC(Nc2ncc(Cl)c(-c3cccc(-c4ccc[nH]c4=O)c3)n2)CC1 [Compound 137, 3-(3-(2-((1-acetylpiperidin-4-yl)amino)-5-chloropyrimidin-4-yl)phenyl)pyridin-2(1H)-one]	> 6.30
CNC(=O)[C@H]1CC[C@@H](Nc2ncc(Cl)c(-c3cccc(-c4ccc[nH]c4=O)c3)n2)CC1 [Compound 138, cis-(1s,4s)-4-((5-chloro-4-(3-(2-oxo-1,2-dihydropyridin-3-yl)phenyl)pyrimidin-2-yl)amino)-N-methylcyclohexane-1-carboxamide]	> 6.30
CNC(=O)[C@H]1C[C@H](Nc2ncc(Cl)c(-c3cccc(-c4ccc[nH]c4=O)c3)n2)C1 [Compound 139, trans-(1r,3r)-3-((5-chloro-4-(3-(2-oxo-1,2-dihydropyridin-3-yl)phenyl)pyrimidin-2-yl)amino)-N-methylcyclobutane-1-carboxamide]	> 6.30
CNC(=O)[C@H]1C[C@H](Nc2ncc(Cl)c(-c3cccc(-c4ccc(F)cc4)n3)n2)C1 [Compound 140, trans-(1r,3r)-3-((5-chloro-4-(6-(4-fluorophenyl)pyridin-2-yl)pyrimidin-2-yl)amino)-N-methylcyclobutane-1-carboxamide]	> 6.30
CC(=O)N1CCC[C@H](Nc2ncc(Cl)c(-c3ccnc(-c4ccc(F)cc4)c3)n2)C1 [Compound 141, (S)-1-(3-((5-chloro-4-(2-(4-fluorophenyl)pyridin-4-yl)pyrimidin-2-yl)amino)piperidin-1-yl)ethan-1-one]	> 6.30
CC(=O)N[C@H]1CC[C@H](Nc2ncc(Cl)c(-c3ccnc(-c4ccc(F)cc4)c3)n2)CC1 [Compound 142, trans-N-((1r,4r)-4-((5-chloro-4-(2-(4-fluorophenyl)pyridin-4-yl)pyrimidin-2-yl)amino)cyclohexyl)acetamide]	> 6.30
CC(=O)N1CCC[C@H](Nc2ncc(Cl)c(-c3ccc(=O)n(-c4ccc(F)cc4)c3)n2)C1 [Compound 143, (S)-5-(2-((1-acetylpiperidin-3-yl)amino)-5-chloropyrimidin-4-yl)-1-(4-fluorophenyl)pyridin-2(1H)-one]	6.00 to 6.30
CNC(=O)[C@H]1CC[C@H](Nc2ncc(Cl)c(-c3cc(C4CC4)[nH]n3)n2)CC1 [Compound 144, trans-(1r,4r)-4-((5-chloro-4-(5-cyclopropyl-1H-pyrazol-3-yl)pyrimidin-2-yl)amino)-N-methylcyclohexane-1-carboxamide]	5.30 to 6.00
CC(=O)N[C@H]1CC[C@H](Nc2ncc(Cl)c(-c3cnn(-c4ccc(=O)[nH]c4)c3)n2)CC1 [Compound 145, trans-N-((1r,4r)-4-((5-chloro-4-(1-(6-oxo-1,6-dihydropyridin-3-yl)-1H-pyrazol-4-yl)pyrimidin-2-yl)amino)cyclohexyl)acetamide]	> 6.30
CNC(=O)[C@H]1CC[C@H](Nc2ncc(Cl)c(-c3cnn(-c4ccc(=O)[nH]c4)c3)n2)CC1 [Compound 146, trans-(1r,4r)-4-((5-chloro-4-(1-(6-oxo-1,6-dihydropyridin-3-yl)-1H-pyrazol-4-yl)pyrimidin-2-yl)amino)-N-methylcyclohexane-1-carboxamide]	> 6.30
CC(=O)N[C@H]1CC[C@H](Nc2ncc(Cl)c(-c3cnn(-c4cc[nH]c(=O)c4)c3)n2)CC1 [Compound 147, trans-N-((1r,4r)-4-((5-chloro-4-(1-(2-oxo-1,2-dihydropyridin-4-yl)-1H-pyrazol-4-yl)pyrimidin-2-yl)amino)cyclohexyl)acetamide]	> 6.30
CNC(=O)[C@H]1CC[C@@H](Nc2ncc(Cl)c(-c3cnn(-c4cc[nH]c(=O)c4)c3)n2)CC1 [Compound 148, cis-(1s,4s)-4-((5-chloro-4-(1-(2-oxo-1,2-dihydropyridin-4-yl)-1H-pyrazol-4-yl)pyrimidin-2-yl)amino)-N-methylcyclohexane-1-carboxamide]	5.30 to 6.00
CC(=O)N[C@H]1CC[C@H](Nc2ncc(Cl)c(-c3cnn(-c4ccc[nH]c4=O)c3)n2)CC1 [Compound 149, trans-N-((1r,4r)-4-((5-chloro-4-(1-(2-oxo-1,2-dihydropyridin-3-yl)-1H-pyrazol-4-yl)pyrimidin-2-yl)amino)cyclohexyl)acetamide]	> 6.30
CC(=O)N1CCC[C@H](Nc2ncc(Cl)c(-c3cccc(-c4ccc[nH]c4=O)c3)n2)C1 [Compound 152, (S)-3-(3-(2-((1-acetylpiperidin-3-yl)amino)-5-chloropyrimidin-4-yl)phenyl)pyridin-2(1H)-one]	> 6.30
CC(=O)N[C@H]1CC[C@@H](Nc2ncc(Cl)c(-c3cccc(-c4ccc[nH]c4=O)c3)n2)CC1 [Compound 153, cis-N-((1s,4s)-4-((5-chloro-4-(3-(2-oxo-1,2-dihydropyridin-3-yl)phenyl)pyrimidin-2-yl)amino)cyclohexyl)acetamide]	> 6.30
CC(=O)N[C@H]1CC[C@H](Nc2ncc(Cl)c(-c3cccc(-c4ccc[nH]c4=O)c3)n2)CC1 [Compound 154, trans-N-((1r,4r)-4-((5-chloro-4-(3-(2-oxo-1,2-dihydropyridin-3-yl)phenyl)pyrimidin-2-yl)amino)cyclohexyl)acetamide]	> 6.30
CNC(=O)[C@H]1CC[C@H](Nc2ncc(Cl)c(-c3cccc(-c4ccc[nH]c4=O)c3)n2)CC1 [Compound 155, trans-(1r,4r)-4-((5-chloro-4-(3-(2-oxo-1,2-dihydropyridin-3-yl)phenyl)pyrimidin-2-yl)amino)-N-methylcyclohexane-1-carboxamide]	> 6.30
CNC(=O)[C@H]1C[C@@H](Nc2ncc(Cl)c(-c3cccc(-c4ccc[nH]c4=O)c3)n2)C1 [Compound 156, cis-3-((5-chloro-4-(3-(2-oxo-1,2-dihydropyridin-3-yl)phenyl)pyrimidin-2-yl)amino)-N-methylcyclobutane-1-carboxamide]	> 6.30
CC(=O)N1CCC[C@H](Nc2ncc(Cl)c(-c3cccc(-c4cccc(=O)[nH]4)c3)n2)C1 [Compound 157, (S)-6-(3-(2-((1-acetylpiperidin-3-yl)amino)-5-chloropyrimidin-4-yl)phenyl)pyridin-2(1H)-one]	> 6.30
CC(=O)N[C@H]1CC[C@H](Nc2ncc(Cl)c(-c3cccc(-c4ccc(F)cc4)n3)n2)CC1 [Compound 158, trans-N-((1r,4r)-4-((5-chloro-4-(6-(4-fluorophenyl)pyridin-2-yl)pyrimidin-2-yl)amino)cyclohexyl)acetamide]	> 6.30
CNC(=O)[C@H]1CC[C@H](Nc2ncc(Cl)c(-c3cccc(-c4ccc(F)cc4)n3)n2)CC1 [Compound 159, trans-(1r,4r)-4-((5-chloro-4-(6-(4-fluorophenyl)pyridin-2-yl)pyrimidin-2-yl)amino)-N-methylcyclohexane-1-carboxamide]	> 6.30
CNC(=O)[C@H]1CC[C@H](Nc2ncc(Cl)c(-c3ccnc(-c4ccc(F)cc4)c3)n2)CC1 [Compound 160, trans-(1r,4r)-4-((5-chloro-4-(2-(4-fluorophenyl)pyridin-4-yl)pyrimidin-2-yl)amino)-N-methylcyclohexane-1-carboxamide]	> 6.30
CNC(=O)[C@H]1C[C@@H](Nc2ncc(Cl)c(-c3cc(C4CC4)[nH]n3)n2)C1 [Compound 161, cis-3-((5-chloro-4-(5-cyclopropyl-1H-pyrazol-3-yl)pyrimidin-2-yl)amino)-N-methylcyclobutane-1-carboxamide]	> 6.30

— patent US20260355196A1, “INHIBITORS AND DEGRADERS OF PIP4K PROTEIN” (Larkspur Biosciences, Inc., priority 2023, published 2026)
